Measurements as given in paper PMC9230136 (Pharmaceutics, 2022).

Legend:
Type in all cases: cell-based, human
HT-29 = assay: Antiproliferative assay (resazurin, 72 h); settings: Table 2; mean ± SE; 72 h
Procedure, shortened: (§1)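 HT-29 cells were cultured in RPMI-1640, while MDA-MB-231, A549 and HeLa were cultured in DMEM, both with 10% FBS. Cells were treated 24 h after seeding with 5-fold serial dilutions starting at 10 μM, in triplicate, and incubated for 72 h at 37 °C. Resazurin fluorescence was read at ex 535/em 600 nm.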

HeLa = assay: Antiproliferative assay (resazurin, 72 h); settings: Table 2, mean ± SE
Procedure, shortened: as §1

A549 = assay: Antiproliferative assay (resazurin, 72 h); settings: Table 2, mean ± SE
Procedure, shortened: as §1

Jurkat = assay: Antiproliferative assay (resazurin, 72 h); settings: Table 2; mean ± SE; 72 h
Procedure, shortened: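 Jurkat T-cell leukemia cells, grown in RPMI-1640 containing 10% fetal bovine serum, 115 units/mL penicillin G and 115 μg/mL streptomycin, were plated in 96-well plates. After 24 h they received serial 5-fold dilutions of test compounds starting at 10 μM, in triplicate, and were kept 72 h at 37 °C in 5% CO2.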

MDA-MB-231 = assay: Antiproliferative assay (resazurin, 72 h); settings: Table 2; mean ± SE; 72 h
Procedure, shortened: as §1

HeLa cells [1] = assay: Immunofluorescence labeling of microtubules; settings: 10 nM, 24 h
Procedure: HeLa cells were seeded at 15,000 cells/well in a NuncTM Lab-Tek 8-well Chamber SlideTM System (Thermo Fisher Scientific) and incubated under cell culture conditions for 24 h. The cells were treated with various concentrations of compounds or solvent (DMSO as control) and incubated for another 24 h.
After the pharmacological treatment, cells were rinsed with PBS and fixed with 200 μL of 4% paraformaldehyde in PBS for 15 min at room temperature. Cells were then washed twice with PBS 1X before proceeding with permeabilization and protein saturation using a blocking buffer containing 3% bovine serum albumin and 0.1% Triton X-100. Cells were maintained in the blocking buffer for 30 min at room temperature before performing immunostaining of microtubules. Cells were incubated with a murine monoclonal anti-β tubulin antibody (Sigma-Aldrich, Milano, Italy) overnight at 4 °C.
After three washes with PBS 1X, cells were incubated for 1 h at room temperature in the dark with a secondary antibody conjugated to Alexa FluorTM 488 (Invitrogen, Thermo Fisher Scientific, Waltham, MA, USA)). […]
Alterations in the microtubule cytoskeleton were documented by fluorescence microscopy using a Zeiss LSM 800 with Airyscan Confocal Spectral microscope (100× magnification) (New York, NY, USA). […]

HeLa cells [2] = assay: ROS production (H2DCFDA); settings: 10, 50 or 100 nM; 24 h
Procedure: The mitochondrial potential was evaluated in HeLa cells by flow cytometry using the cell membrane permeable cationic dye 5,5′,6,6′-tetrachloro-1,1′,3,3′-tetraethyl-imidacarbocyanine iodide (JC-1) (Molecular Probes) as described previously. The production of ROS was measured in HeLa cells by flow cytometry using 2′,7′-dichlorodihydrofluorescein diacetate (H2DCFDA) (Molecular Probes) as described previously.

HeLa cells [3] = assay: Apoptosis by annexin-V-FITC/PI flow cytometry
Procedure: Surface exposure of phosphatidylserine on apoptotic cells was measured by flow cytometry with a Beckman Coulter Cytomics FC500 (Beckman Coulter Italia, Milano, Italy) by adding annexin-V conjugated to fluorescein isothiocyanate (FITC) to cells according to the manufacturer’s instructions (Annexin-V Fluos, Roche Diagnostic, Monza, Italy). Simultaneously, the cells were stained with PI. Excitation was set at 488 nm, and the emission filters were at 525 and 585 nm, respectively, for FITC and PI.

HeLa cells [4] = assay: Western blot of cellular protein expression; settings: 24 h
Procedure: Following growth for various times in the presence of 8q, HeLa cells were harvested by centrifugation and washed twice in 0 °C PBS. Cells were lysed with 0.1% (v/v) Triton X-100 containing RNase A at 0 °C, and supernatants were obtained by centrifuging the lysed cells at 15,000× g for 10 min at 4 °C. The protein content of the solutions was measured, and 10 μg of protein from each sample was subjected to sodium dodecyl sulfate polyacrylamide gel electrophoresis. Proteins were transferred by electroblotting to a poly(vinylidene difluoride) Hybond-P membrane from GE Healthcare. Membranes were treated with 5% bovine serum albumin in PBS containing 0.1% Tween 20 overnight at 4 °C. The membranes were then exposed for 2 h at room temperature to primary antibodies directed against cyclin B cdc25c, cdc2 (Y15), BCL-2, cleaved poly (ADP-ribose) polymerase (PARP), MCL-1, XIAP and vinculin (all from Cell Signaling), and subsequently for 1 h to peroxidase-labeled secondary antibodies. The membranes were visualized using ECL select (GE Healthcare), and images were acquired using a Uvitec-Alliance imaging system. Densitometric analysis of Western blots was performed by ImageJ software and the results were normalized to β-actin and represented as fold change with respect to untreated controls.

[5] = system: A549, MDA-MB-231, HeLa, HT-29 and Jurkat cancer cell lines; assay: Antiproliferative activity over the panel of cancer cell lines; settings: mean over the five cancer cell lines; read-out: mean IC50 (antiproliferative activity)
Procedure, shortened: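 HT-29 grown in RPMI-1640, A549, HeLa and MDA-MB-231 in DMEM, both with 10% FBS. Seeded cells treated after 24 h with 5-fold serial dilutions from 10 μM, in triplicate, for 72 h at 37 °C. Viability read by resazurin fluorescence (ex 535/em 600 nm) after 3–4 h.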

## Cc1cc(Nc2ccc(F)cc2)n2nc(NCCCc3ccccc3)nc2n1 [Compound 8q]
HT-29
  IC50: 0.049 ± 0.01 µM
HeLa
  IC50: 0.029 µM
A549
  IC50: 0.13 ± 0.09 µM
Jurkat
  IC50: 0.15 ± 0.02 µM
MDA-MB-231
  IC50: 0.062 ± 0.03 µM
HeLa cells [1]
  microtubule network organization: microtubules were disorganized, and the cells developed a spherical morphology
HeLa cells [2]
  ROS production: significantly increased ROS production in a dose-dependent manner
HeLa cells [3]
  concentration from which apoptosis was induced: 50 nM
HeLa cells [4]; 50 nM
  BCL-2 and MCL-1 expression: partial reduction in BCL-2 and MCL-1 expression
  caspase-3 activation and PARP cleavage: appearance of the cleaved fragment of the executioner caspase-3 and the consequent cleavage of its substrate PARP
HeLa cells [4]
  ATR (Ser428) and CHK1 (S345) phosphorylation: appreciable increase in ATR phosphorylation (Ser428) and of its downstream target CHK1 (S345)
  cdc2 phosphorylation (Tyr15): significant reduction in cdc2 phosphorylation (Tyr15)
[5]
  IC50: 0.083 µM
